In the supplement of paper PMC6045584:
± gives the standard deviation of the averaged measurements.

Experiments:
[1] = compound: CC(=O)c1c(C)c2cnc(Nc3ccc(N4CCNCC4)cn3)nc2n(C2CCCC2)c1=O; assay: surviving fraction relative to DMSO-only wells; higher = less growth inhibition; conditions: exposure time: 5 days
Outline: (§1)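 Luminescence normalised to the median of DMSO-only wells defines surviving fraction, with viability read by CellTiter-Glo. Signal was recorded after 10 minutes at room temperature, once log-phase tumour cell lines seeded at 250–500 cells per well in 384-well plates had spent 24 hours settling and then five days under continuous exposure to inhibitors at 0.5, 1, 5, 10, 50, 100, 500 and 1000 nM.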

GEFITINIB = compound: COc1cc2ncnc(Nc3ccc(F)c(Cl)c3)c2cc1OCCCN1CCOCC1 [GEFITINIB]; assay: as above; conditions: exposure time: 5 days
Outline: as §1

Row | Test System | surviving fraction ([1]; 0.5 nM) | surviving fraction ([1]; 1 nM) | surviving fraction ([1]; 5 nM) | surviving fraction ([1]; 10 nM) | surviving fraction ([1]; 50 nM) | surviving fraction ([1]; 100 nM) | surviving fraction ([1]; 500 nM) | surviving fraction ([1]; 1000 nM) | surviving fraction (GEFITINIB; 0.5 nM) | surviving fraction (GEFITINIB; 1 nM) | surviving fraction (GEFITINIB; 5 nM) | surviving fraction (GEFITINIB; 10 nM) | surviving fraction (GEFITINIB; 50 nM) | surviving fraction (GEFITINIB; 100 nM) | surviving fraction (GEFITINIB; 500 nM) | surviving fraction (GEFITINIB; 1000 nM)
1 | BT549 BREAST | 1.1 ± 0.12 | 1.124 ± 0.0096 | 1.22 ± 0.14 | 1.03 ± 0.098 | 1.13 ± 0.17 | 0.979 ± 0.16 | 1.12 ± 0.12 | 1.05 ± 0.036 | 1.1 ± 0.18 | 1.03 ± 0.073 | 1.04 ± 0.13 | 0.946 ± 0.094 | 1.17 ± 0.14 | 1.21 ± 0.046 | 1.057 ± 0.007 | 1.11 ± 0.15
2 | HELA CERVIX | 1.03 ± 0.037 | 0.986 ± 0.016 | 1.01 ± 0.046 | 0.959 ± 0.04 | 1.14 ± 0.072 | 1.15 ± 0.034 | 1.16 ± 0.021 | 1.04 ± 0.039 | 1.07 ± 0.044 | 1.05 ± 0.019 | 1.106 ± 0.0031 | 1.06 ± 0.033 | 1.15 ± 0.029 | 1.14 ± 0.022 | 1.18 ± 0.065 | 1.14 ± 0.058
3 | MDAMB453 BREAST | 1.05 ± 0.018 | 1.04 ± 0.043 | 1.07 ± 0.026 | 1.11 ± 0.044 | 1.15 ± 0.1 | 1.11 ± 0.061 | 1 ± 0.026 | 1.01 ± 0.071 | 1.09 ± 0.045 | 1.07 ± 0.078 | 1.19 ± 0.078 | 1.1 ± 0.024 | 1.14 ± 0.053 | 1.13 ± 0.087 | 1.06 ± 0.05 | 1.04 ± 0.039
4 | HCC202 BREAST | 0.959 ± 0.31 | 0.859 ± 0.088 | 1.01 ± 0.094 | 0.874 ± 0.16 | 0.863 ± 0.17 | 1 ± 0.25 | 1.19 ± 0.15 | 0.982 ± 0.22 | 1.4 ± 0.62 | 1.2 ± 0.23 | 1.35 ± 0.21 | 1.06 ± 0.14 | 1.32 ± 0.14 | 1.11 ± 0.37 | 0.542 ± 0.13 | 0.345 ± 0.013
5 | HCC70 BREAST | 1.02 ± 0.051 | 0.999 ± 0.056 | 1.13 ± 0.032 | 1.05 ± 0.034 | 1.155 ± 0.0084 | 1.08 ± 0.08 | 0.983 ± 0.066 | 1.1 ± 0.055 | 1.03 ± 0.13 | 0.976 ± 0.048 | 1.15 ± 0.14 | 1.02 ± 0.075 | 1.03 ± 0.042 | 1.01 ± 0.088 | 0.815 ± 0.048 | 0.848 ± 0.068
6 | SKBR3 BREAST | 1.04 ± 0.16 | 1.12 ± 0.066 | 0.958 ± 0.06 | 0.987 ± 0.22 | 0.923 ± 0.056 | 0.892 ± 0.12 | 0.82 ± 0.085 | 0.855 ± 0.067 | 1 ± 0.18 | 1.04 ± 0.14 | 1.04 ± 0.089 | 1.02 ± 0.11 | 1 ± 0.062 | 0.844 ± 0.026 | 0.361 ± 0.0087 | 0.249 ± 0.03
7 | HCC78 LUNG | 1.03 ± 0.14 | 0.975 ± 0.063 | 1.29 ± 0.046 | 0.899 ± 0.2 | 1.02 ± 0.25 | 1.17 ± 0.14 | 0.619 ± 0.11 | 0.579 ± 0.041 | 1.03 ± 0.2 | 0.938 ± 0.12 | 1.01 ± 0.1 | 0.994 ± 0.12 | 0.967 ± 0.12 | 0.963 ± 0.067 | 0.711 ± 0.23 | 0.668 ± 0.19
8 | NOS1 BONE | 0.935 ± 0.071 | 0.997 ± 0.15 | 1.17 ± 0.086 | 0.969 ± 0.053 | 1.07 ± 0.055 | 1.11 ± 0.034 | 1.09 ± 0.11 | 1.09 ± 0.061 | 1.1 ± 0.073 | 1.11 ± 0.032 | 1.25 ± 0.23 | 1.22 ± 0.29 | 1.17 ± 0.085 | 1.11 ± 0.046 | 0.871 ± 0.048 | 0.754 ± 0.031
9 | HOS BONE | 1.02 ± 0.068 | 1.03 ± 0.021 | 1.01 ± 0.022 | 1.04 ± 0.034 | 1.114 ± 0.0042 | 1.07 ± 0.06 | 1.05 ± 0.016 | 1.08 ± 0.057 | 1.01 ± 0.02 | 1.034 ± 0.0087 | 1.041 ± 0.01 | 1.04 ± 0.032 | 1.06 ± 0.033 | 1.07 ± 0.031 | 1.01 ± 0.021 | 0.973 ± 0.013
10 | SCC47 HEADNECK | 1.12 ± 0.087 | 1.05 ± 0.03 | 1.13 ± 0.072 | 1.1 ± 0.013 | 1.17 ± 0.065 | 1.1 ± 0.091 | 1.1 ± 0.035 | 1.04 ± 0.048 | 1.1 ± 0.034 | 1.1 ± 0.058 | 1.12 ± 0.043 | 1.06 ± 0.053 | 0.993 ± 0.017 | 0.899 ± 0.028 | 0.649 ± 0.018 | 0.602 ± 0.039
11 | CAL72 BONE | 1.1 ± 0.066 | 1.12 ± 0.061 | 1.12 ± 0.025 | 1.13 ± 0.05 | 1.13 ± 0.037 | 1.14 ± 0.022 | 1.14 ± 0.078 | 1.07 ± 0.048 | 1.01 ± 0.11 | 1.02 ± 0.088 | 1.05 ± 0.099 | 1.02 ± 0.082 | 1.11 ± 0.054 | 1.13 ± 0.098 | 1.07 ± 0.074 | 1.05 ± 0.11
12 | VP229 BREAST | 1.1 ± 0.1 | 1.05 ± 0.04 | 1.06 ± 0.034 | 0.852 ± 0.093 | 0.995 ± 0.055 | 0.978 ± 0.15 | 0.932 ± 0.037 | 0.776 ± 0.075 | 1.14 ± 0.062 | 1.08 ± 0.09 | 1.07 ± 0.033 | 0.974 ± 0.098 | 0.875 ± 0.084 | 0.681 ± 0.042 | 0.347 ± 0.028 | 0.281 ± 0.008
13 | HUO3N1 BONE | 1.01 ± 0.041 | 1.04 ± 0.032 | 1.05 ± 0.035 | 1.01 ± 0.066 | 1.04 ± 0.024 | 1.1 ± 0.016 | 1.01 ± 0.05 | 1.03 ± 0.022 | 0.977 ± 0.032 | 0.972 ± 0.053 | 1.05 ± 0.022 | 1.04 ± 0.018 | 1.08 ± 0.044 | 1.05 ± 0.039 | 0.991 ± 0.052 | 0.974 ± 0.052
14 | H23 LUNG | 1.01 ± 0.035 | 1 ± 0.029 | 1.04 ± 0.038 | 0.928 ± 0.065 | 1.132 ± 0.01 | 1.12 ± 0.068 | 1.15 ± 0.074 | 1.13 ± 0.033 | 1.01 ± 0.07 | 0.997 ± 0.032 | 0.989 ± 0.014 | 0.918 ± 0.03 | 0.603 ± 0.075 | 0.458 ± 0.053 | 0.356 ± 0.05 | 0.346 ± 0.0093
15 | MDAMB436 BREAST | 0.912 ± 0.09 | 0.888 ± 0.047 | 1.01 ± 0.054 | 0.833 ± 0.032 | 0.92 ± 0.042 | 0.915 ± 0.07 | 0.915 ± 0.082 | 0.915 ± 0.031 | 1.02 ± 0.091 | 1.01 ± 0.06 | 0.994 ± 0.026 | 1.09 ± 0.098 | 0.993 ± 0.12 | 1.03 ± 0.084 | 1.08 ± 0.098 | 1.08 ± 0.1
